Data published in patent US12697328B2, “Methods for treating metastasis with cathepsin C inhibitors” (Shanghai Institute of Nutrition and Health, Chinese Academy …, priority 2020, dated 2026).

Columns and labels:
[1] = system: murine neutrophils; assay: Two-chamber migration of neutrophils recruited by media of neutrophils pre-treated with 4T07 CM; assay type: cell-based; settings: media of neutrophils pre-treated with CM of 4T07 with CTSC overexpressed; FIG. 7E
Description: The procedure of two-chamber migration assays was previously described (Zhuang et al., “Differential effects on lung and bone metastasis of breast cancer by Wnt signalling inhibitor DKK1,” Nat. Cell Biol. 19:1274-1285 (2017)). Briefly, 5×10^5 freshly isolated neutrophils in RPMI 1640 were added to the upper chamber (363096, BD), and a 1:1 mixture of RPMI 1640 and cancer cell CM, or medium from neutrophils cultured in cancer cell CM, was added to the lower chamber as the chemoattractant. The migrated cells in the lower chamber were counted after 3 h.

[2] = system: SCP28 cells overexpressing CTSC; assay: Mice injected with CTSC-overexpressed SCP28 cells, treated with Sivelestat or DNase I; assay type: in vivo
Description: Female BALB/c and athymic mice aged 6-10 weeks were used in all animal experiments. Orthotropic and intravenous injection were performed as previously described (Zhuang et al., “Differential effects on lung and bone metastasis of breast cancer by Wnt signalling inhibitor DKK1,” Nat. Cell Biol. 19:1274-1285 (2017)). For EdU labeling assays, nude mice were intravenously injected with 2×10^5 cancer cells, followed by intraperitoneal (i.p.) injection of 100 ng/mouse EdU (ThermoFisher, C10640) 24 h before lung harvest. For neutrophil depletion assays, mice received 2 initial i.p. injection (200 μg/mouse) of 1A8 Ly6G antibody (BE0075-1, BioXCel) or rat IgG control (14131, Sigma) every 3 days before cancer cell injection and then maintenance injection twice a week after cancer cell injection. For Sivelestat or DNase I treatment, mice were i.p. injected with Sivelestat (50 mg/kg) or DNase I (5 mg/kg) 2 h before cancer cell injection, followed by daily injection of the reagents for 9 days, and then maintenance shots twice a week. For GSK484 treatment, mice were treated with GSK484 (20 mg/kg, i.p. daily shots for 20 days from day 7, and then maintenance shots every two days) following orthotopic injection of AT3 or 4T07 cells. For IL-1b blocking or IL6R/CCR1 inhibition assays, mice were orthotopically inoculated with 5×10^4 AT3 and treated with i.p. administration of IgG or the IL-1β blocking antibody (100 μg per mouse), or the IL6R blocking antibody (100 μg per mouse) and the CCR1 inhibitor BX471 (20 mg/kg), every two days from day 7 until the mice were sacrificed. For brensocatib treatment, BALB/c mice were orthotopically inoculated with 1×10^5 4T1 cells, and C57/BL6 mice were orthotopically inoculated with 2×10^5 AT3. […]
The number of myeloperoxidase-positive neutrophils around GFP^+ cancer cells in the lungs of mice 72 h after injection with CTSC-overexpressed SCP28 is quantified by immunostaining of the lung tissue. […]

[3] = system: 4T1 cells; assay: Brensocatib treatment of mice after fat pad injection of 4T1 cells (lung metastasis of breast cancer); assay type: in vivo, BALB/c mice; settings: brensocatib 5 mg/kg orally twice daily
Description: Female BALB/c and athymic mice aged 6-10 weeks were used in all animal experiments. Orthotropic and intravenous injection were performed as previously described (Zhuang et al., “Differential effects on lung and bone metastasis of breast cancer by Wnt signalling inhibitor DKK1,” Nat. Cell Biol. 19:1274-1285 (2017)). For EdU labeling assays, nude mice were intravenously injected with 2×10^5 cancer cells, followed by intraperitoneal (i.p.) injection of 100 ng/mouse EdU (ThermoFisher, C10640) 24 h before lung harvest. For neutrophil depletion assays, mice received 2 initial i.p. injection (200 μg/mouse) of 1A8 Ly6G antibody (BE0075-1, BioXCel) or rat IgG control (14131, Sigma) every 3 days before cancer cell injection and then maintenance injection twice a week after cancer cell injection. For Sivelestat or DNase I treatment, mice were i.p. injected with Sivelestat (50 mg/kg) or DNase I (5 mg/kg) 2 h before cancer cell injection, followed by daily injection of the reagents for 9 days, and then maintenance shots twice a week. For GSK484 treatment, mice were treated with GSK484 (20 mg/kg, i.p. daily shots for 20 days from day 7, and then maintenance shots every two days) following orthotopic injection of AT3 or 4T07 cells. For IL-1b blocking or IL6R/CCR1 inhibition assays, mice were orthotopically inoculated with 5×10^4 AT3 and treated with i.p. administration of IgG or the IL-1β blocking antibody (100 μg per mouse), or the IL6R blocking antibody (100 μg per mouse) and the CCR1 inhibitor BX471 (20 mg/kg), every two days from day 7 until the mice were sacrificed. For brensocatib treatment, BALB/c mice were orthotopically inoculated with 1×10^5 4T1 cells, and C57/BL6 mice were orthotopically inoculated with 2×10^5 AT3. Vehicle controls (0.5% HPMC, 0.1% Tween 80 in 0.1 M citrate buffer, pH 3) and brensocatib (5 mg/kg) were administered orally twice daily until the mice were sacrificed. Orthotopic tumors were surgically removed at the size of about 1 cm^3. Recombinant human active PR3 treatment (1.5 mg/kg) was administrated intravenously daily after intravenous inoculation of […] LM2 cells. For TSP-1 degradation assays, mice were i.p. injected with GSK484 (20 mg/kg) 2 h before cancer cell injection and followed by daily treatment. Then, the lungs were perfused with 50 ml of pre-chilled PBS through the right ventricle until they were cleared of blood at 72 h post injection of 3×10^6 AT3 or 4T07 cells. BLI was acquired with NightOWL II LB983 Imaging System (Bert-hold) and IVIS Spectrum CT (PerkinElmer). All animal studies were conducted according to the guidelines for the care and use of laboratory animals and were approved by the Institutional Animal Care and Use Committee of Shanghai Institute of Nutrition and Health.
The use of CTSC inhibitors to treat lung metastasis of breast cancer is investigated. Brensocatib (also known as AZD7986 or INS1007) is a CTSC-specific inhibitor used for treating Non-Cystic Fibrosis Bronchiectasis, and has currently entered Phase II clinical trials. See Doyle et aL, “Discovery of second generation reversible covalent DPP1 inhibitors leading to an oxazepane amidoacetonitrile based clinical candidate (AZD7986),” J. Med. Chem. 59:9457-9472 (2016). Brensocatib is administered to mice 7 days after the introduction of 4T1 cells via fat pad injection. A vehicle control group is also provided. Graphical data for change in tumor volume over time, numbers of pulmonary nodules formed, changes in mouse weight over time, and mouse survival rates, as well as the statistical diagram of the number of NETs in the lesions, are shown in FIGS. 10A-E. CTSC inhibitor brensocatib also suppresses the NETs-promoted tumor sphere formation of 4T1 cells (FIG. 10F).

SMILES	migration of murine neutrophils [1]	neutrophil aggregation around cancer cells in the lungs ([2]; 7 weeks post-injection, FIG. 7G)	neutrophil aggregation around cancer cells in the lungs ([2]; 72 h after injection, Sivelestat 50 mg/kg i.p., FIG. 7F)	lung metastasis (BLI) ([2]; up to 8 weeks post-injection, Sivelestat 50 mg/kg or DNase I 5 mg/kg i.p., FIG. 8G)	in situ tumor volume vs. time (primary tumor growth) ([3]; from 7 days after 4T1 fat pad injection, vs untreated control, FIG. 10A)	formation of NETs in the lung metastatic lesions ([3]; FIG. 10E)	pulmonary nodule formation ([3]; vs untreated mice, FIG. 10B)	body weight decrease ([3]; vs untreated mice, FIG. 10C)	survival rate ([3]; vs untreated mice, FIG. 10D)	neutrophil infiltration in the pulmonary lesions ([3]; vs untreated mice, FIG. 10E)
CC(C)(C)C(=O)Oc1ccc(S(=O)(=O)Nc2ccccc2C(=O)NCC(=O)O)cc1 [Silvelestat]	significantly reduced	persist through 7 weeks post-injection	decreases	suppressed						
Cn1c(=O)oc2ccc(-c3ccc(C[C@@H](C#N)NC(=O)[C@@H]4CNCCCO4)cc3)cc21 [brensocatib, (2S)—N-{(1S)-1-cyano-2-[4-(3-methyl-2-oxo-2,3-dihydro-1,3-benzoxazol-5-yl)phenyl]ethyl}-1,4-oxazepane-2-carboxamide]					does not affect primary tumor growth	significantly inhibits	significantly reduced	lower than untreated mice	significantly improves	reduced relative to untreated mice
